Source: ChEMBL document CHEMBL3425496, “Exploring experimental and computational markers of cyclic peptides: Charting islands of permeability” (Eur J Med Chem, 2015)
Square brackets hold non-standard residues; d marks the D form. Peptide text beside a SMILES is read from it. NMeT = CN[C@H](C(=O)O)[C@@H](C)O; Sar = CNCC(=O)O

How the values were obtained:
[1] = Apparent permeability of the compound at 50 uM after 5 hrs by PAMPA method; assay type: physicochemical
[2] = Apparent permeability from apical to basolateral side in human Caco2 cells by LC-MS analysis; assay type: ADME, cell-based; details: Caco-2

Row | Papp at 5 h, 50 µM [1] | Papp A→B [2] | SMILES
1 | 0.67 ×10⁻⁶ cm/s | 11.9 ×10⁻⁶ cm/s | CC(C)C[C@@H]1NC(=O)[C@@H](CC(C)C)N(C)C(=O)[C@@H](CC(C)C)N(C)C(=O)[C@H](Cc2ccc(O)cc2)NC(=O)[C@@H]2CCCN2C(=O)[C@@H](CC(C)C)NC1=O
2 | 0.35 ×10⁻⁶ cm/s | 1.08 ×10⁻⁶ cm/s | CC(C)C[C@@H]1NC(=O)[C@H](Cc2ccccc2)N(C)C(=O)CN(C)C(=O)[C@H](C)NC(=O)[C@H](Cc2ccc(O)cc2)N(C)C(=O)[C@H]2CCCN2C1=O
3 | 0.01 ×10⁻⁶ cm/s | 0.06 ×10⁻⁶ cm/s | CC[C@H](C)[C@@H]1NC(=O)[C@H](Cc2ccc(O)cc2)NC(=O)[C@H](Cc2ccccc2)NC(=O)CNC(=O)[C@H](C(C)C)NC(=O)CNC1=O (cyclo(FYIGVG))
4 | 0.28 ×10⁻⁶ cm/s | 0.36 ×10⁻⁶ cm/s | CC(C)C[C@@H]1NC(=O)[C@@H](CC(C)C)NC(=O)[C@@H](CC(C)C)NC(=O)[C@@H](CC(C)C)NC(=O)[C@H](Cc2c[nH]c3ccccc23)NC(=O)[C@@H]2CCCN2C1=O
5 | 1.88 ×10⁻⁶ cm/s | 16.4 ×10⁻⁶ cm/s | CC(C)C[C@@H]1C(=O)N(C)[C@H](CC(C)C)C(=O)N[C@H](CC(C)C)C(=O)N(C)[C@@H](CC(C)C)C(=O)N2CCC[C@H]2C(=O)N[C@@H](Cc2ccc(O)cc2)C(=O)N1C
6 | 0.04 ×10⁻⁶ cm/s | 0.11 ×10⁻⁶ cm/s | CC(C)C[C@@H]1NC(=O)[C@H](Cc2ccccc2)NC(=O)[C@H]([C@@H](C)O)NC(=O)CNC(=O)[C@H](C(C)C)NC(=O)[C@H](Cc2ccc(O)cc2)NC1=O (cyclo(FLYVGT))
7 | 1.51 ×10⁻⁶ cm/s | 7.75 ×10⁻⁶ cm/s | CC(C)C[C@@H]1NC(=O)[C@@H](CC(C)C)N(C)C(=O)[C@H](CC(C)C)NC(=O)[C@H](Cc2ccc(O)cc2)N(C)C(=O)[C@H]2CCCN2C(=O)[C@H](CC(C)C)NC1=O
8 | 0.96 ×10⁻⁶ cm/s | 10.8 ×10⁻⁶ cm/s | CC(C)C[C@@H]1NC(=O)[C@H](Cc2ccc(O)cc2)NC(=O)[C@H]2CCCN2C(=O)[C@H](CC(C)C)NC(=O)[C@H](CC(C)C)N(C)C(=O)[C@@H](CC(C)C)N(C)C1=O
9 | 0.14 ×10⁻⁶ cm/s | < 0.14 ×10⁻⁶ cm/s | CC(C)C[C@H]1C(=O)N2CCC[C@H]2C(=O)N[C@@H](Cc2ccc(O)cc2)C(=O)N(C)[C@H](C)C(=O)N(C)CC(=O)N[C@H](Cc2ccccc2)C(=O)N1C
10 | 1.67 ×10⁻⁶ cm/s | 5.95 ×10⁻⁶ cm/s | CC(C)C[C@@H]1NC(=O)[C@H](Cc2c[nH]c3ccccc23)NC(=O)[C@H]2CCCN2C(=O)[C@H](CC(C)C)NC(=O)[C@H](CC(C)C)NC(=O)[C@@H](CC(C)C)NC1=O
11 | 0.08 ×10⁻⁶ cm/s | 0.93 ×10⁻⁶ cm/s | C[C@@H](O)[C@@H]1NC(=O)[C@H](CCCCN)NC(=O)[C@@H](Cc2c[nH]c3ccccc23)NC(=O)[C@H](Cc2ccccc2)NC(=O)[C@@H]2CCCN2C(=O)[C@H](Cc2ccccc2)NC1=O
12 | 0.01 ×10⁻⁶ cm/s | 0.09 ×10⁻⁶ cm/s | CC(C)C[C@@H]1NC(=O)[C@@H](Cc2ccccc2)NC(=O)CNC(=O)[C@@H](C)NC(=O)[C@H](Cc2ccc(O)cc2)NC(=O)[C@@H]2CCCN2C1=O
13 | 0.01 ×10⁻⁶ cm/s | 0.1 ×10⁻⁶ cm/s | CC(C)C[C@@H]1NC(=O)[C@H](Cc2ccccc2)NC(=O)[C@H]([C@@H](C)O)N(C)C(=O)CN(C)C(=O)[C@H]([C@@H](C)O)NC(=O)[C@H](Cc2ccc(O)cc2)NC1=O (cyclo(FLYT[Sar][NMeT]))
14 | 1.31 ×10⁻⁶ cm/s | 11.3 ×10⁻⁶ cm/s | CC(C)C[C@@H]1NC(=O)[C@H](Cc2ccc(O)cc2)N(C)C(=O)[C@H]2CCCN2C(=O)[C@H](CC(C)C)NC(=O)[C@H](CC(C)C)N(C)C(=O)[C@@H](CC(C)C)NC1=O
15 | 0.93 ×10⁻⁶ cm/s | 4.77 ×10⁻⁶ cm/s | CC(C)C[C@@H]1C(=O)N(C)[C@@H](CC(C)C)C(=O)N[C@@H](Cc2ccc(O)cc2)C(=O)N(C)[C@H](C)C(=O)N(C)CC(=O)N[C@@H](Cc2ccccc2)C(=O)N1C
16 | 0.29 ×10⁻⁶ cm/s | 1.04 ×10⁻⁶ cm/s | CC(C)C[C@@H]1NC(=O)[C@H](CC(C)C)N(C)C(=O)[C@H](Cc2ccc(O)cc2)NC(=O)[C@@H]2CCCN2C(=O)[C@H]2CCCN2C(=O)[C@@H](CC(C)C)NC1=O
17 | 0.02 ×10⁻⁶ cm/s | 0.72 ×10⁻⁶ cm/s | CC(C)C[C@@H]1NC(=O)[C@@H](CC(C)C)NC(=O)[C@H](Cc2ccccc2)NC(=O)CNC(=O)[C@@H](C)NC(=O)[C@H](Cc2ccc(O)cc2)NC1=O
18 | 0.01 ×10⁻⁶ cm/s | 0.11 ×10⁻⁶ cm/s | CC(C)C[C@@H]1NC(=O)CNC(=O)[C@@H]2CCCN2C(=O)[C@H](Cc2ccc(O)cc2)NC(=O)[C@H](Cc2ccccc2)NC(=O)[C@@H]2CCCN2C1=O (cyclo(FYPGLP))
19 | 1.11 ×10⁻⁶ cm/s | 5.45 ×10⁻⁶ cm/s | CC(C)C[C@H]1NC(=O)[C@H](CC(C)C)N(C)C(=O)[C@H](CC(C)C)N(C)C(=O)[C@H](Cc2ccc(O)cc2)NC(=O)[C@@H]2CCCN2C(=O)[C@H]2CCCN2C1=O
20 | 0.01 ×10⁻⁶ cm/s | < 0.14 ×10⁻⁶ cm/s | CC(C)C[C@H]1NC(=O)[C@@H](Cc2ccccc2)NC(=O)CNC(=O)[C@H](C)NC(=O)[C@H](Cc2ccc(O)cc2)NC(=O)[C@@H]2CCCN2C1=O
21 | 0.07 ×10⁻⁶ cm/s | 0.63 ×10⁻⁶ cm/s | CC(C)C[C@H]1NC(=O)[C@H](Cc2ccccc2)NC(=O)CN(C)C(=O)[C@@H](C)N(C)C(=O)[C@H](Cc2ccc(O)cc2)NC(=O)[C@@H]2CCCN2C1=O
22 | 0.07 ×10⁻⁶ cm/s | 0.58 ×10⁻⁶ cm/s | CC(C)C[C@H]1NC(=O)[C@H](Cc2ccccc2)NC(=O)CNC(=O)[C@@H](C)NC(=O)[C@H](Cc2ccc(O)cc2)NC(=O)[C@@H]2CCCN2C1=O
23 | 0.09 ×10⁻⁶ cm/s | 0.2 ×10⁻⁶ cm/s | C[C@@H](O)[C@@H]1NC(=O)[C@@H](CCCCN)NC(=O)[C@@H](Cc2c[nH]c3ccccc23)NC(=O)[C@H](Cc2ccccc2)NC(=O)[C@@H]2CCCN2C(=O)[C@@H](Cc2ccccc2)NC1=O
